Test results from patent US20030166645A1, “Novel nitrofuran-containing heterocyclic compounds and uses thereof” (priority 2001, published 2003).
≈ marks a conversion by molar mass, not a printed value.

Legend:
Assay in all cases: Microdilution antimicrobial susceptibility test (MIC)
Type in all cases: cell-based
M. catarrhalis = conditions: broth microdilution, 18-24 h, MIC = 90% inhibition of growth; for MIC: Moraxella catarrhalis, read-out: MIC M. catarrhalis MIC2
S cerevisiae = conditions: broth microdilution, 18-24 h, MIC = 90% inhibition of growth; for MIC: read-out: MIC S cerevisiae MIC7
E faecalis = conditions: broth microdilution, 18-24 h, MIC = 90% inhibition of growth; for MIC: read-out: MIC E faecalis MIC2
S aureus = conditions: broth microdilution, 18-24 h, MIC = 90% inhibition of growth; for MIC: read-out: MIC S aureus MIC2
H influenzae = conditions: broth microdilution, 18-24 h, MIC = 90% inhibition of growth; for MIC: read-out: MIC H influenzae MIC4
E coli = conditions: broth microdilution, 18-24 h, MIC = 90% inhibition of growth; for MIC: read-out: MIC E coli MIC2
E coli (ImpA) = conditions: broth microdilution, 18-24 h, MIC = 90% inhibition of growth; for MIC: read-out: MIC E coli (ImpA) MIC9
Procedure: Microdilution Antimicrobial Susceptibility Test Assay
Stock solutions of tested compounds were prepared in N,N-dimethylformamide (DMF) at a concentration of 5 mg/mL. Working solutions of the tested compounds were then prepared from the stock solutions, in Mueller-Hinton broth (MHB) with a starting concentration of 64 μg/mL.
Bacterial inocula were prepared from overnight culture (i.e., one fresh colony from agar plate in 5 ml MHB; H. influenzae was grown in MHB with the addition of yeast extract, haematin, and NAD), centrifuged 2×5 min/3000 rpm (for S. pneumoniae and H. influenzae, 2×10 min/3000 rpm), and dispensed in 5 ml of fresh MHB each time, such that the bacterial suspension is diluted to obtain 100 colony forming units (cfu) in a microplate well (100 μl total volume).
Microplate wells were filled with two-fold dilutions of test compound (50 Al), starting with 64 μg/ml. Wells were then filled with 50 μl of bacterial inoculum (final volume: 100 μl/well). The plates were incubated at 37° C. for 18-24 hours (S. pneumoniae was grown in a CO2-enriched atmosphere).

S pneumoniae = conditions: broth microdilution, 18-24 h, CO2-enriched atmosphere, MIC = 90% inhibition of growth; for MIC: read-out: MIC S pneumoniae MIC6
P aeruginosa = conditions: broth microdilution, 18-24 h, MIC = 90% inhibition of growth

Structure (SMILES) | MIC M. catarrhalis MIC2 (M. catarrhalis) [µg/mL] | MIC S cerevisiae MIC7 (S cerevisiae) [µg/mL] | MIC E faecalis MIC2 (E faecalis) [µg/mL] | MIC S aureus MIC2 (S aureus) [µg/mL] | MIC H influenzae MIC4 (H influenzae) [µg/mL] | MIC E coli MIC2 (E coli) [µg/mL] | MIC E coli (ImpA) MIC9 (E coli (ImpA)) [µg/mL] | MIC S pneumoniae MIC6 (S pneumoniae) [µg/mL] | MIC (M. catarrhalis) [µg/mL] | MIC (S cerevisiae) [µg/mL] | MIC (E faecalis) [µg/mL] | MIC (S aureus) [µg/mL] | MIC (H influenzae) [µg/mL] | MIC (E coli) [µg/mL] | MIC (E coli (ImpA)) [µg/mL] | MIC (S pneumoniae) [µg/mL] | MIC P aeruginosa MIC2 (P aeruginosa) [µg/mL]
C=CCn1c(S)nnc1-c1ccc([N+](=O)[O-])o1 [Compound 130] | 4 (≈ 15.9 µM) | >64 | 64 (≈ 254 µM) | >64 | 32 (≈ 127 µM) | >64 | 64 (≈ 254 µM) | 16 (≈ 63.4 µM) |  |  |  |  |  |  |  |  | 
O=[N+]([O-])c1ccc(-c2nnc(S)n2-c2ccc(Br)c(Cl)c2)o1 [Compound 142] | <0.12 | 64 (≈ 159 µM) | 1 (≈ 2.49 µM) | <0.12 | 8 (≈ 19.9 µM) | >64 | <0.12 | 2 (≈ 4.98 µM) |  |  |  |  |  |  |  |  | 
Cn1c(SCCCO)nnc1-c1ccc([N+](=O)[O-])o1 [Compound 116, 5-[2-(5-Nitro)furyl]-4-methyl-4H-1,2,4-triazole-3-(3-hydroxypropyl)-thiol] |  |  |  |  |  |  |  |  | 0.5 (≈ 1.76 µM) | > 64 | 8 (≈ 28.1 µM) | 8 (≈ 28.1 µM) | 16 (≈ 56.3 µM) | 8 (≈ 28.1 µM) | 1 (≈ 3.52 µM) | 8 (≈ 28.1 µM) | 
O=[N+]([O-])c1ccc(-c2nnc(S(=O)(=O)O)n2Cc2ccccc2)o1 [Compound 128] | 16 (≈ 45.7 µM) | >64 | >64 | >64 | 64 (≈ 183 µM) | >64 | >64 | 64 (≈ 183 µM) |  |  |  |  |  |  |  |  | >64
O=[N+]([O-])c1ccc(-c2nnc(S(=O)(=O)O)n2-c2ccccc2)o1 [Compound 127] | 32 (≈ 95.2 µM) | >64 | >64 | >64 | >64 | >64 | 64 (≈ 190 µM) | >64 |  |  |  |  |  |  |  |  | >64
O=[N+]([O-])c1ccc(-c2nnc(S)[nH]2)o1 [Compound 117] |  |  |  |  |  |  |  |  | 2 (≈ 9.43 µM) | > 64 | 32 (≈ 151 µM) | 64 (≈ 302 µM) | 8 (≈ 37.7 µM) | > 64 | 16 (≈ 75.4 µM) | 2 (≈ 9.43 µM) | 
Cn1c(SCC#N)nnc1-c1ccc([N+](=O)[O-])o1 [Compound 121] | 1 (≈ 3.77 µM) | >64 | 64 (≈ 241 µM) | 16 (≈ 60.3 µM) | 16 (≈ 60.3 µM) | 8 (≈ 30.2 µM) | 2 (≈ 7.54 µM) | 16 (≈ 60.3 µM) |  |  |  |  |  |  |  |  | 
O=[N+]([O-])c1ccc(-c2nnc(S)n2-c2cccc(Cl)c2)o1 [Compound 140] | <0.12 | >64 | 16 (≈ 49.6 µM) | 1 (≈ 3.1 µM) | 4 (≈ 12.4 µM) | >64 | 0.5 (≈ 1.55 µM) | 2 (≈ 6.2 µM) |  |  |  |  |  |  |  |  | >64
O=[N+]([O-])c1ccc(-c2nnc(S(=O)(=O)O)n2C2CCCCC2)o1 [Compound 131] | 8 (≈ 23.4 µM) | >64 | >64 | >64 | 64 (≈ 187 µM) | >64 | >64 | 64 (≈ 187 µM) |  |  |  |  |  |  |  |  | >64
O=[N+]([O-])c1ccc(-c2nnc(S)n2-c2ccc(I)cc2)o1 [Compound 138] | <0.12 | 16 (≈ 38.6 µM) | 1 (≈ 2.41 µM) | 0.5 (≈ 1.21 µM) | 8 (≈ 19.3 µM) | >64 | 0.25 (≈ 0.604 µM) |  |  |  |  |  |  |  |  |  | 
CCn1c(S)nnc1-c1ccc([N+](=O)[O-])o1 [Compound 126] |  |  |  |  |  |  |  |  | 4 (≈ 16.6 µM) | > 64 | 64 (≈ 266 µM) | > 64 | 32 (≈ 133 µM) | > 64 |  | 16 (≈ 66.6 µM) | 
O=[N+]([O-])c1ccc(-c2nnc(S)n2-c2ccc(Br)cc2)o1 [Compound 141] | 0.125 (≈ 0.34 µM) | 64 (≈ 174 µM) | 2 (≈ 5.45 µM) | 0.25 (≈ 0.681 µM) | 8 (≈ 21.8 µM) | >64 | <0.12 | 2 (≈ 5.45 µM) |  |  |  |  |  |  |  |  | 
O=[N+]([O-])c1ccc(-c2nnc(S)n2CCCN2CCOCC2)o1 [Compound 120] | 2 (≈ 5.89 µM) | 64 (≈ 189 µM) | 64 (≈ 189 µM) | 64 (≈ 189 µM) | 16 (≈ 47.1 µM) | >64 | 32 (≈ 94.3 µM) | 16 (≈ 47.1 µM) |  |  |  |  |  |  |  |  | 
O=[N+]([O-])c1ccc(-c2nnc(S)n2-c2ccc(F)cc2)o1 [Compound 136] | 4 (≈ 13.1 µM) | 64 (≈ 209 µM) | 64 (≈ 209 µM) | 32 (≈ 104 µM) | 16 (≈ 52.2 µM) | >64 | 16 (≈ 52.2 µM) | 8 (≈ 26.1 µM) |  |  |  |  |  |  |  |  | 
O=[N+]([O-])c1ccc(-c2nnc(S)n2C2CCCCC2)o1 [Compound 137] | 1 (≈ 3.4 µM) | >64 | 32 (≈ 109 µM) | >64 | 16 (≈ 54.4 µM) | >64 | 32 (≈ 109 µM) | 8 (≈ 27.2 µM) |  |  |  |  |  |  |  |  | 
O=[N+]([O-])c1ccc(-c2nnc(S)n2-c2ccc(Cl)cc2)o1 [Compound 139, 4-(4-Chlorophenyl)-5-(5-nitrofuranyl)-4H-1,2,4-triazol-3-thiol] |  |  |  |  |  |  |  |  | < 0.12 | 32 (≈ 99.2 µM) | 2 (≈ 6.2 µM) | 0.25 (≈ 0.775 µM) | 2 (≈ 6.2 µM) | > 64 | < 0.12 | 2 (≈ 6.2 µM) | 
O=[N+]([O-])c1ccc(-c2nnc(S)n2-c2ccccc2)o1 [Compound 134] | 0.25 (≈ 0.867 µM) | >64 | 64 (≈ 222 µM) | 2 (≈ 6.94 µM) | 8 (≈ 27.8 µM) |  | 2 (≈ 6.94 µM) | 8 (≈ 27.8 µM) |  |  |  |  |  |  |  |  | 
CSc1nnc(-c2ccc([N+](=O)[O-])o2)n1C [Compound 124] |  |  |  |  |  |  |  |  | 1 (≈ 4.16 µM) | 16 (≈ 66.6 µM) | 32 (≈ 133 µM) | 16 (≈ 66.6 µM) | 8 (≈ 33.3 µM) | 64 (≈ 266 µM) | 2 (≈ 8.32 µM) | 8 (≈ 33.3 µM) | 
O=[N+]([O-])c1ccc(-c2nnc(S)n2Cc2ccccc2)o1 [Compound 135] | 1 (≈ 3.31 µM) | >64 | 16 (≈ 52.9 µM) | 32 (≈ 106 µM) | 64 (≈ 212 µM) | >64 | 32 (≈ 106 µM) | 8 (≈ 26.5 µM) |  |  |  |  |  |  |  |  | 
Nn1c(S)nnc1-c1ccc([N+](=O)[O-])o1 [Compound 110] |  |  |  |  |  |  |  |  | 32 (≈ 141 µM) | 64 (≈ 282 µM) | > 128 | 32 (≈ 141 µM) | 8 (≈ 35.2 µM) | 16 (≈ 70.4 µM) |  | 32 (≈ 141 µM) | 
Cn1c(SCc2ccncc2)nnc1-c1ccc([N+](=O)[O-])o1 [Compound 129] | 0.5 (≈ 1.58 µM) | >64 | 64 (≈ 202 µM) | 16 (≈ 50.4 µM) | 16 (≈ 50.4 µM) | 64 (≈ 202 µM) | 4 (≈ 12.6 µM) | 16 (≈ 50.4 µM) |  |  |  |  |  |  |  |  | 
CCCCn1c(S)nnc1-c1ccc([N+](=O)[O-])o1 [Compound 133] | 32 (≈ 119 µM) | 64 (≈ 239 µM) | >64 | 64 (≈ 239 µM) | 32 (≈ 119 µM) | >64 | 64 (≈ 239 µM) | 64 (≈ 239 µM) |  |  |  |  |  |  |  |  | 
